Experimental data from patent US20080171716A1, “NUCLEIC ACID MODULATION OF TOLL-LIKE RECEPTOR-MEDIATED IMMUNE STIMULATION” (Protiva Biotherapeutics, Inc., priority 2006, published 2008).
m = 2'-O-methyl; r = 2'-OH (RNA)

Biological target: T1, TLR9 (Homo sapiens, UniProt Q9NR96)
T1 construct: these experiments were repeated in human PBMC cultures; endogenous in cells; host or cells: primary human PBMCs
T1 sequence (Q9NR96 26-1032): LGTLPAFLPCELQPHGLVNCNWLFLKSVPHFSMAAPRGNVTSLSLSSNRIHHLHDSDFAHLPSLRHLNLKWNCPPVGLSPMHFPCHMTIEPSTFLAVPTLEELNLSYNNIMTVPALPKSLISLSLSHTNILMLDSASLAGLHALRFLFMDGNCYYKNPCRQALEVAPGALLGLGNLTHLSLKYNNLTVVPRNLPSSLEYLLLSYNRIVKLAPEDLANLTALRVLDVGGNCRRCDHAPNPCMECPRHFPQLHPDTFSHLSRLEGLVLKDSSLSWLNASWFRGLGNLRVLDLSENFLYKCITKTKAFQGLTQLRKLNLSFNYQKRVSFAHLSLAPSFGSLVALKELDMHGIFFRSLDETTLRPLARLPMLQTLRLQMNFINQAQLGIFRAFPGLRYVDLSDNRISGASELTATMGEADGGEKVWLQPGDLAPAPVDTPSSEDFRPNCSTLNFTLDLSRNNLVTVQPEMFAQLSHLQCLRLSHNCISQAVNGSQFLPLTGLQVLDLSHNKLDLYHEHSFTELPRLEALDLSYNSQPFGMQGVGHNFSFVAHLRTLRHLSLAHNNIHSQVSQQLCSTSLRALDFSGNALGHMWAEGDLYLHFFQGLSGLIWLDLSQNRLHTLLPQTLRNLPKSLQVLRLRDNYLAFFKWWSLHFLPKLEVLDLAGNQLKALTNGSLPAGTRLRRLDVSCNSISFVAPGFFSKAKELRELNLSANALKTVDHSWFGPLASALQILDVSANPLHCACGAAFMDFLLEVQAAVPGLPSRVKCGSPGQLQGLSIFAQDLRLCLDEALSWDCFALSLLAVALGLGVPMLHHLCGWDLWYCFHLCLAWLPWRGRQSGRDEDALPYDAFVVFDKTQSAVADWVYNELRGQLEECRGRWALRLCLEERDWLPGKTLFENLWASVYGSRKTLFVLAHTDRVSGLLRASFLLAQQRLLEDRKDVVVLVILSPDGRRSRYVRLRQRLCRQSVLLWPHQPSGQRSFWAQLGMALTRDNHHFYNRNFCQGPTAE
Test: CpG ODN (TLR9 agonist)-induced cytokine production in human PBMCs
Type: cell-based
Protocol: All RNA molecules used in this study were heated at 90° C. for 3 min. and then placed at 37° C. for 60 min. Non-denaturing PAGE analysis on a 20% polyacrylamide gel was performed to confirm that ssRNA molecules were intact and that no duplexes had formed upon heating. The RNA molecules were encapsulated in a SNALP formulation comprising PEG-cDMA:DLinDMA:cholesterol:DSPC in a 2:40:48:10 mol % ratio (2:40 SNALP), prepared using a syringe press process.
Fresh human peripheral blood mononuclear cells (PBMCs) were isolated and seeded at about 3×10^5 cells/well in a total volume of 180 μl. Next, 20 μl of the appropriate SNALP diluted in PBS or 10 μl of naked TLR agonist were added to the PBMCs. For time course experiments, PBMCs were pretreated with UmodS ssRNA or a control and the appropriate naked TLR agonist was added at 0, 0.5, or 2 hours after pretreatment. When the SNALP and naked TLR agonist were added separately, the SNALP was added first followed by the naked TLR agonist. At t=24 hr., the cell supernatant was harvested and IFN-α and/or IL-6 levels were determined using ELISA.
Lipid Encapsulation of RNA and ODN. RNA or ODN were encapsulated in liposomes by a process of spontaneous vesicle formation as described in Judge et al., supra, and Jeffs et al., Pharm. […]
Cytokine ELISA. All cytokines were quantified using sandwich ELISA kits according to the manufacturer's instructions. […]

Luc UmodS: Luc sense strand ssRNA with 2′OMe at uridines: GAmUmUAmUGmUCCGGmUmUAmUGmUAUU (sense GAUUAUGUCCGGUUAUGUAUU; sugars from the 5' end rrmmrmrmrrrrmmrmrmrrr, backbone not given here)
IL-6 levels induced by naked ODN2006 (TLR9 agonist, phosphorothioate CpG Type B) (human PBMCs pretreated with SNALP-encapsulated ssRNA): no reduction
level of IFN-α induced by naked ODN2216 (TLR9 agonist, phosphorothioate CpG Type A) (human PBMCs, SNALP-encapsulated ssRNA plus naked ODN): increased
